Results: patent US8865664B2, “Hydrophobically enhanced aminoglycosides” (University of Manitoba, priority 2008, dated 2014)
Converted amounts (≈) assume the structure as drawn.

Tests used:
[1] = tested on: Gram-positive organisms (ATCC and CAN-ICU strains); experiment: MIC, Gram-positive organisms (compounds ending in A); type: cell-based; settings: in words; Table 3 organisms
Procedure: (§1) The minimum inhibitory concentrations (MIC) in μg/mL were determined using established methods (Clinical and Laboratory Standards Institute, 2006) and are shown in Table 3 (FIG. 17). Gentamicin, neomycin B and kanamycin A served as positive controls.

[2] = tested on: Gram-negative organisms (ATCC and CAN-ICU strains); experiment: MIC, Gram-negative organisms (compounds ending in A); type: cell-based; settings: in words; Table 3 organisms
Procedure: as §1

[3] = tested on: methicillin-resistant S. aureus (MRSA) ATCC 33592; experiment: MIC, antibiotic susceptibility testing, MRSA; type: cell-based, Staphylococcus aureus; settings: for fold enhancement against MRSA when compared to neomycin: vs neomycin
Procedure: (§2) Standard reference antibiotic susceptibility testing methods (NCCLS[CLS] (Clinical and Laboratory Standards Institute, 2006)) agar or dilutional methods was used to assess the activity of all prepared antimicrobials. Compounds were tested against Gram-positive strains including S. aureus, methicillin-resistant S. aureus (MRSA), S. epidermidis, methicillin-resistant S. epidermidis (MRSE) and S. pneumoniae as well as Gram-negative strains E. coli, gentamycin resistant E. coli and P. aeruginosa. Gentamycin and neomycin served as positive controls. MIC values defined as the lowest concentration of antimicrobial agent which inhibits the development of visible growth after 24 h at 37° C. was determined.
as §1

[4] = tested on: P. aeruginosa (ATCC 27853); experiment: MIC, P. aeruginosa (compounds 13-31); type: cell-based, Pseudomonas aeruginosa; settings: in words; among neomycin-lipid conjugates
Procedure: as §2

[5] = tested on: Microorganisms from ATCC and CAN-ICU; experiment: MIC, all investigated bacteria (compounds ending in A); type: cell-based; settings: in words; vs 4A
Procedure: as §1

E. coli (ATCC 25922) = experiment: MIC, E. coli (compounds 13-31); type: cell-based; settings: in words
Procedure: as §2

[6] = tested on: gentamycin resistant E. coli (ATCC 6174); experiment: MIC, gentamycin resistant E. coli (compounds 13-31); type: cell-based; settings: in words
Procedure: as §2

[7] = tested on: methicillin-resistant S. epidermidis (MRSE) (ATCC 14990); experiment: MIC, antibiotic susceptibility testing, MRSE (compounds 13-31); type: cell-based, Staphylococcus epidermidis; settings: vs kanamycin A
Procedure: as §2

MRSA = settings: fatty acid against MRSA; cited from earlier work
[8] = tested on: MSSA (methicillin-susceptible S. aureus); settings: fatty acid against MSSA; cited from earlier work

Compound: 1,3,2′,6′,2′″,6′″-Hexaammonium-6,3′,4′,2″,5″,4′″-hexa-β-phenylcarbamoyl-5″-hexadecanoyl-5″-deoxy-neomycin-hexafluoroacetate [Compound 7A]
- Gram-positive antibacterial activity [1]: poor
- Gram-negative activity [2]: poor

Compound: 1,3,2′,6′,2′″,6″-Hexaammonium-5″-deoxy-5″-N-(hexadecanoyl)-neomycin hexakis(trifluoroacetate) [Compound 15]
- fold enhancement against MRSA when compared to neomycin ([3]; MRSA): 32 fold

Compound: 1,3,2′,6′,2′″,6″-Hexaammonium-5″-deoxy-5″-N-(nonadecanoyl)-neomycin hexakis(trifluoroacetate) [Compound 16]
- fold enhancement against MRSA when compared to neomycin ([3]; MRSA): 32 fold
- antimicrobial activity against P. aeruginosa [4]: optimal

Compound: 1,3,2′,6′-Tetraammonium-4,5,3′,4′-tetra-O-phenylcarbamoyl-neamine-tetrafluoroacetate [Compound 17A]
- Gram-positive antibacterial activity [1]: reduced
- Gram-negative activity [2]: higher

Compound: 1,3,6′,3″-Tetraammonium-5,2′,4′,2″,3″,4″-hexa-O-phenylcarbamoyl-6″ hexadecanoyl-6″-deoxy-kanamycin-tetrafluoroacetate [Compound 14A]
- Gram-positive antibacterial activity [1]: poor
- Gram-negative activity [2]: poor

Compound: 1,3,6′,3″-Tetraammonium-5,2″,4″,6″,2′″,3′″,4′″-hepta-β-phenylcarbamoyl-6″-deoxy-kanamycin-tetrafluoroacetate [Compound 11A]
- Gram-positive antibacterial activity [1]: reduced
- Gram-negative activity [2]: poor

Compound: 3,6′,3″,1′″-Tetraammonium-5,2′,4′,2″,3″,4″-hexa-O-phenylcarbamoyl-6″-deoxy-amikacin-tetrafluoroacetate [Compound 20A]
- Gram-positive antibacterial activity [1]: reduced
- Gram-negative activity [2]: poor

Compound: 4,3′,4′,2″,5″3′″,4″-Hexa-O-phenylcarbamoyl-1,3,2′,6′,2′″,6′″-hexa-N-(guanidinyl)-5″-deoxy-neomycin-hexafluoroacetate [Compound 9A]
- antibacterial activity when compared to 4A [5]: slightly reduced

Compound: CCCCCC(=O)NCC1OC(OC2C(O)C(N)CC(N)C2OC2OC(CN)C(O)C(O)C2N)C(O)C1OC1OC(CN)C(O)C(O)C1N.O=C(O)C(F)(F)F.O=C(O)C(F)(F)F.O=C(O)C(F)(F)F.O=C(O)C(F)(F)F.O=C(O)C(F)(F)F.O=C(O)C(F)(F)F (stereo not drawn) [Compound 13, 1,3,2′,6′,2′″,6″-Hexaammonium-5″-deoxy-5″-N-(hexanoyl)-neomycin hexakis(trifluoroacetate)]
- activity against E. coli relative to the C16- or C20-lipid conjugates (E. coli (ATCC 25922)): stronger activity
- activity against gentamycin-resistant E. coli relative to the C16- or C20-lipid conjugates [6]: stronger activity

Compound: CCCCCCCCCCCCCCCC(=O)NCC1OC(OC2C(N)CC(N)C(OC3OC(CN)C(O)C(O)C3O)C2O)C(O)C(N)C1O.O=C(O)C(F)(F)F.O=C(O)C(F)(F)F.O=C(O)C(F)(F)F.O=C(O)C(F)(F)F (stereo not drawn) [Compound 30, 1,3,6′,3″-Tetraammonium-6″-deoxy-6″-N-(hexadecanoyl)-kanamycin-tetrakis-(trifluoroacetate)]
- fold enhancement in antimicrobial activity against MRSA when compared to unmodified kanamycin A ([3]; MRSA, vs kanamycin A): 35 fold
- fold enhancement in antimicrobial activity against MRSE when compared to unmodified kanamycin A [7]: 56 fold

Compound: CCCCCCCCCCCC(=O)O [lauric acid]
- MIC (MRSA): 400 µg/mL (≈ 2000 µM)
- MIC [8]: 400 µg/mL (≈ 2000 µM)

Compound: neomycin [reference compound]
- MIC ([3]; against MRSA, 24 h at 37° C.): ~8 µg/mL
